Source: patent US6534503B1, “Melanocortin receptor-3 ligands to treat sexual dysfunction” (Lion Bioscience AG, priority 1998, dated 2003)

What was measured:
MC-3 = target: T1, MC-3 (Homo sapiens, UniProt P41968); assay: cAMP assay for melanocortin receptors, HEK 293 cells expressing MC-3; type: cell-based; conditions: for Emax: HEK293, percentage of stimulation obtained by adding HP-228 at 0.8 μM, read-out: % of HP-228 (MC-3 stimulatory effect); for EC50: concentration for 50% of the maximum increase by that ligand
T1 construct: expressed in transfected cells; host or cells: HEK 293
Source text: (§1) All cell culture media and reagents were obtained from GibcoBRL (Gaithersburg Md.), except for COSMIC CALF SERUM (HyClone; Logan Utah). HEK 293 cell lines were transfected with human MC receptors hMCR-1, hMCR-3 and hMCR-4 (Gantz et al., Biochem. Biophys. Res. Comm. 200:1214-1220 (1994); Gantz et al., J. Biol. Chem. 268:8246-8250 (1993); Gantz et al. J. Biol. Chem. 268:15174-15179 (1993); Haskell-Leuvano et al., Biochem. Biophys. Res. Comm. 204:1137-1142 (1994)). Vectors for constructing an hMCR-5-expressing cell line were obtained and a line of HEK 293 cells expressing hMCR-5 was constructed (Gantz, supra, 1994). Receptor hMCR-5 has been described previously (Franberg et al., Biochem. Biophys. Res. Commun. 236:489-492 (1997); Chowdhary et al., Cytogenet. Cell Genet. 68:1-2 (1995); Chowdhary et al., Cytogenet. Cell Genet. 68:79-81 (1995)). HEK 293 cells were maintained in DMEM, 25 mM HEPES, 2 mM glutamine, non-essential amino acids, vitamins, sodium pyruvate, 10% COSMIC CALF SERUM, 100 units/ml penicillin, 100 μg/ml streptomycin and 0.2 mg/ml G418 to maintain selection.
(§2) This example describes methods for assaying cAMP production from G-protein-coupled MC receptors.
(§3) HEK 293 cells individually expressing MCR-1, CR-3, MCR-4 or MCR-5 were used. Cells were plated at 20,000 cells per well in a 96-well plate coated with collagen (Beckton Dickinson; Bridgeport N.J.). The next day, cells were pretreated with 88 μl of 0.4 mM 3-isobutyl-1-methylxanthine (IBMX) in low serum medium containing DMEM, 25 mM HEPES and 0.1% COSMIC CALF SERUM. IBMX is an inhibitor of cAMP phosphodiesterase. The pretreatment was carried out for 10 minutes at 37° C.
(§4) Following pretreatment, 12.5 μl of diluted compound was added to the wells and cells were incubated for 15 min at 37° C. Cells were lysed by adding 25 μl saponin lysis buffer (130 mM KCl, 1 mM KH2PO4, 2.5 mM MgSO4, 15 mM sucrose, 20 mM HEPES, 2% BSA, 0.8% saponin) and incubating 2 to 5 minutes. Plates were covered and stored at −20° C.
(§5) The cAMP concentration was determined by ELISA. Briefly, 96 well ELISA plates were coated with goat anti-cAMP antibody in PBS for 12 to 72 hr at 4° C. 50 μl of sample was mixed with 50 μl of cAMP ELISA buffer containing 1% bovine serum albumin, 10% heat inactivated donor horse serum, 1% normal mouse serum and 0.05% TWEEN-20 in PBS, and the diluted sample was added to the coated ELISA plate. Standards of known concentrations of cAMP were added to separate wells. Then, cAMP-conjugated horseradish peroxidase (cAMP-HRP) was added to each well at 25 μl of 16 ng/ml. The plates were incubated for 3 hr at room temperature. Plates were washed and the binding of cAMP-HRP was detected with 3,3′,5,5′-tetramethylbenzidine (TMB) and hydrogen peroxide using standard immunoassay procedures.
(§6) Various compounds were tested for in vitro activity and binding to melanocortin receptors. MC-3 stimulatory effect is also described in terms of percentage of stimulation obtained by adding HP-228 at 0.8 μM. The EC50 values are the concentration of ligand necessary to achieve 50% of the maximum increase by that ligand in an assay. The IC50 values are the concentration giving 50% inhibition of binding of ^125I-HP 467.

MC-1 = target: T2, MC-1 (Homo sapiens, UniProt Q01726); assay: cAMP assay for melanocortin receptors, HEK 293 cells expressing MC-1; type: cell-based; conditions: concentration for 50% of the maximum increase by that ligand
T2 construct: expressed in transfected cells; host or cells: HEK 293
Source text: as §1, §2, §3, §4
as §5, with “procedures. […]” for “procedures.”

MC-4 = target: T3, MC-4 (Homo sapiens, UniProt P32245); assay: cAMP assay for melanocortin receptors, HEK 293 cells expressing MC-4; type: cell-based; conditions: concentration for 50% of the maximum increase by that ligand
T3 construct: expressed in transfected cells; host or cells: HEK 293
Source text: as §1, §2, §3, §4, §5, §6

male Sprague-Dawley rats [1] = assay: Effect of oxytocin receptor antagonist vasotocin on erectile effects in rats; type: in vivo; conditions: rat
Source text: (§7) In both examples, male Sprague-Dawley rats, about 200 to 225 g, were acclimated for 5 days in a reverse light:dark cycle room (dark 10 a.m. to 10 p.m.) before being aseptically ICV cannulated. Rats with indwelling ICV cannulae were housed one per cage. After surgery, 4 days were allowed for recovery and 10 days total were allowed for adaptation to the light cycle. Rats were caged individually after surgery and body weights at the time of treatment averaged 250 g. Otherwise, the procedure is essentially the same as in Example II.
Treatment was between 10 a.m. and 1 p.m. […] Vasotocin (Peninsula Laboratories, San Carlos Calif.) was administered ICV at 100 ng/rat. Oxytocin (Sigma, St. Louis Mo.) was administered ICV at 30 ng/rat (10 μl/rat PBS). Ten minutes later, IP injections of HP-228 or vehicle were given. HP-228 was administered IP at 2 mg/kg in 3 ml/kg PBS. One group of animals received ICV injections of vasotocin and oxytocin ICV injections of 5 μl/rat each at double concentrations for a total of 10 μl injected ICV. In this group, the rats received vasotocin first, followed by oxytocin.

male Sprague-Dawley rats [2] = assay: Effect of dopamine receptor antagonist sulpiride on erectile effects in rats; type: in vivo; conditions: rat
Source text: as §7
Treatment was between 9:30 a.m. and noon. Each animal received an initial IP injection of vehicle (3 ml/kg PBS) or sulpiride. Sulpiride (Sigma) was administered IP at 50 mg/kg (6 ml/kg IP). Ten minutes later, the animals received a final IP injection of HP-228 or vehicle or a SC injection of apomorphine. HP-228 was administered IP at 2 mg/kg in 3 ml/kg PBS. Apomorphine (Sigma) was administered SC at 0.1 mg/kg (1 ml/kg sterile water).

[3] = single agent plus PBS: oxytocin 30 ng/rat ICV, HP-228 2 mg/kg IP, vasotocin 100 ng/rat ICV
[4] = single agent plus PBS: apomorphine 0.1 mg/kg SC, HP-228 2 mg/kg IP, sulpiride 50 mg/kg IP
[5] = sulpiride 50 mg/kg IP followed by HP-228 2 mg/kg IP
[6] = sulpiride 50 mg/kg IP followed by apomorphine 0.1 mg/kg SC
[7] = vasotocin 100 ng/rat ICV followed by HP-228 2 mg/kg IP
[8] = vasotocin ICV followed by oxytocin ICV

T3 sequence (P32245 whole entry): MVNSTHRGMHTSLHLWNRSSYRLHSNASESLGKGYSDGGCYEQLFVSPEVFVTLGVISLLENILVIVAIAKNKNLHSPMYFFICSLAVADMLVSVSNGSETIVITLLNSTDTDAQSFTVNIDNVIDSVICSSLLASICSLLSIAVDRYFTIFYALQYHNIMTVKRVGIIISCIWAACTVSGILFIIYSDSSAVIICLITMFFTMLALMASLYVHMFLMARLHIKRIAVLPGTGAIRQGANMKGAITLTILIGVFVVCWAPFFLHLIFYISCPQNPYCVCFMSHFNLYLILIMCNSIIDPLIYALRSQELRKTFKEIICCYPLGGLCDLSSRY
T2 sequence (Q01726 whole entry): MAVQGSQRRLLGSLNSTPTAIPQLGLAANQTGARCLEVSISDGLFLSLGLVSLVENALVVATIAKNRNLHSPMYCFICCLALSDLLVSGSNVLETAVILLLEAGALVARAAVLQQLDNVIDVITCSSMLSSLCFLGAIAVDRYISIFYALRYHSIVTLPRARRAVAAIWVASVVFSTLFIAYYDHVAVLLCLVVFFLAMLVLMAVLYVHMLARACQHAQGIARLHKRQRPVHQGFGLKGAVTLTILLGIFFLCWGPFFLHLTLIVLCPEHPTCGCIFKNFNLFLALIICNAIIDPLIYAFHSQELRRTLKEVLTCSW
T1 sequence (P41968 whole entry): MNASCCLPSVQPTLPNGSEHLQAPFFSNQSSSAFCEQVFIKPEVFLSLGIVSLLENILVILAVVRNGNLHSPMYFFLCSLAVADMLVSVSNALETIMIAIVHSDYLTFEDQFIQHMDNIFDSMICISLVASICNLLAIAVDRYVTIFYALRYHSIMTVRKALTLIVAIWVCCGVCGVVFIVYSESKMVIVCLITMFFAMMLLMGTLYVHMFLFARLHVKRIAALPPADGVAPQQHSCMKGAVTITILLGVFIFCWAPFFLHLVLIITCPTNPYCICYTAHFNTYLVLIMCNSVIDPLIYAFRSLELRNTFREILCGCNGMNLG

Row | Compound | Emax (MC-3) [%] | EC50 (MC-3) [nM] | EC50 (MC-1) [nM] | EC50 (MC-4) [nM] | further results
1 | CC(C)(C)c1ccc(-c2nc3cc(C(=O)N(CCc4ccccc4)Cc4ccccc4)ccc3n2C(CCCNC(=N)N)C(N)=O)cc1 (centres unmarked) [Compound A] | 89 | 7650 | 470 |  | 
2 | CCCCOc1ccc(-c2nc3cc(C(=O)NC(Cc4ccccc4)c4ccccc4)ccc3n2C(CCCNC(=N)N)C(N)=O)cc1 (centres unmarked) [Compound B] | 115 | 1330 |  | 12000 | 
3 | CC[C@H](C)[C@@H]1NC(=O)[C@H](Cc2ccc(O)cc2)NC(=O)[C@@H](N)CSSC[C@@H](C(=O)N2CCC[C@H]2C(=O)N[C@@H](CC(C)C)C(=O)NCC(N)=O)NC(=O)[C@H](CC(N)=O)NC(=O)[C@H](CCC(N)=O)NC1=O [Oxytocin] |  |  |  |  | response rate, % of animals (male Sprague-Dawley rats [1]; oxytocin and HP-228 groups): 88%-100%; erections per hour (male Sprague-Dawley rats [1]; [3]): 3.9 erections per hour; responder rate of animals (rats responding out of rats) (male Sprague-Dawley rats [1]; [3]): 7/8
4 | CN1CCc2cccc3c2[C@H]1Cc1ccc(O)c(O)c1-3 [apomorphine] |  |  |  |  | response rate, % of animals (male Sprague-Dawley rats [2]; apomorphine and HP-228 groups): 100%; erections per hour (male Sprague-Dawley rats [2]; [4]): 4.0 erections per hour; rate of animals responding (male Sprague-Dawley rats [2]; [4]): 6/6
5 | CCN1CCCC1CNC(=O)c1cc(S(N)(=O)=O)ccc1OC (centres unmarked) [sulpiride] |  |  |  |  | erections per hour (male Sprague-Dawley rats [2]; [4]): 0.0 erections per hour; rate of animals responding (male Sprague-Dawley rats [2]; [4]): 0/2; erections per hour (male Sprague-Dawley rats [2]; [5]): 6.7 erections per hour; rate of animals responding (male Sprague-Dawley rats [2]; [5]): 4/4; erections per hour (male Sprague-Dawley rats [2]; [6]): 1.5 erections per hour; rate of animals responding (male Sprague-Dawley rats [2]; [6]): 3/4
6 | d(CH2)5-Tyr(Me^2)-Orn^8-Vasotocin |  |  |  |  | erections per hour (male Sprague-Dawley rats [1]; [3]): 0.2 erections per hour; responder rate of animals (rats responding out of rats) (male Sprague-Dawley rats [1]; [3]): 2/8; erections per hour (male Sprague-Dawley rats [1]; [7]): 5.6 erections per hour; responder rate of animals (rats responding out of rats) (male Sprague-Dawley rats [1]; [7]): 8/8; erections per hour (male Sprague-Dawley rats [1]; [8]): 1.0 erections per hour; responder rate of animals (rats responding out of rats) (male Sprague-Dawley rats [1]; [8]): 4/8

Now from value to compound, other results behind:

Row | Emax (MC-3) [%] | EC50 (MC-3) [nM] | EC50 (MC-1) [nM] | EC50 (MC-4) [nM] | Compound | further results
7 | 92 | 1400 |  | 10600 | CC(C)c1ccc(-c2nc3cc(C(=O)NC(Cc4ccccc4)c4ccccc4)ccc3n2C(CCCNC(=N)N)C(N)=O)cc1 (centres unmarked) [Compound C] | 
8 | 140 | 1700 |  | 2800 | CC(C)c1ccc(-c2nc3cc(C(=O)N(CCc4ccccc4)Cc4ccccc4)ccc3n2C(CCCNC(=N)N)C(N)=O)cc1 (centres unmarked) [Compound D] | 
9 | 59 | 6700 | 430 | 19900 | CC(C)(C)c1ccc(-c2nc3cc(C(=O)NC(Cc4ccccc4)c4ccccc4)ccc3n2C(CCCNC(=N)N)C(N)=O)cc1 (centres unmarked) [Compound E] | 
10 | 91 | 1750 | 380 | 80 | CC(C)(C)c1ccc(-c2nc3cc(C(=O)N4CC=C(c5ccc(Cl)cc5)CC4)ccc3n2[C@@H](CCCNC(=N)N)C(N)=O)cc1 [Compound K] | 
11 | 350 | 4690 | 220 | 6350 | CC(C)(C)c1ccc(-c2nc3cc(C(=O)N(CCc4ccccc4)Cc4cccnc4)ccc3n2[C@@H](CCCNC(=N)N)C(N)=O)cc1 [Compound L] | 
12 | 89 | 3670 |  |  | CCCCOc1ccc(-c2nc3cc(C(=O)N(CCc4ccccc4)Cc4cccnc4)ccc3n2[C@@H](CCCNC(=N)N)C(N)=O)cc1 [Compound M] | 
13 | 229 | 2320 |  | 5900 | CCCCCc1ccc(-c2nc3cc(C(=O)N(CCc4ccccc4)Cc4ccccc4)ccc3n2[C@@H](CCCNC(=N)N)C(N)=O)cc1 [Compound N] | 
